{"source": "PubChem BioAssay AID1963846", "about": "(Molecular Pharmacology Branch, DTP, NCI, 2024);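 also: spheroids exposed to drugs for seven days before measurement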;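 as to viability, T/C: percent viability relative to DMSO vehicle control wells taken as 100%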", "system": "454973-116-R2-J3-PDC complex spheroid viability", "assay": "Anticancer human tumor 454973-116-R2-J3-PDC patient-derived pancreatic carcinoma cell line growth inhibition [POLQ]", "conditions": "for IC50: curve of first compound; for viability, T/C: stronger effect = lower value", "how_it_was_run": "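Complex spheroid viability model combining PDC tumour cells with endothelial (HUVEC) and MSC stromal cells. Novobiocin, ART-558 or RP6685 were tested singly and in combination with standard and investigational anticancer drugs. Each was titrated in half-log steps from near clinical Cmax, or from 10 microM where Cmax was unknown.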", "data": [{"smiles": "CC1COCCN1c1cc(C2(O)CC3CCC(C2)O3)c2cnn(-c3ccn[nH]3)c2n1", "note": "(configuration not stated) + Cc1cccc(N(C)C(=O)C2C(O)CCN2c2nc(C)cc(C(F)(F)F)c2C#N)c1", "values": [{"measurement": "IC50", "setting": "second compound 0.0316 µM", "value": 190, "unit": "nM"}, {"measurement": "IC50", "setting": "second compound 0.1 µM", "value": 212, "unit": "nM"}, {"measurement": "IC50", "setting": "second compound 0.316 µM", "value": 199, "unit": "nM"}, {"measurement": "IC50", "setting": "second compound 1 µM", "value": 196, "unit": "nM"}, {"measurement": "IC50", "setting": "second compound 3.16 µM", "value": 182, "unit": "nM"}, {"measurement": "IC50", "setting": "second compound 10 µM", "value": 163, "unit": "nM"}, {"measurement": "viability, T/C", "setting": "second compound 0.0316 µM, first compound 0.0316 µM", "value": 91.2, "unit": "%"}, {"measurement": "viability, T/C", "setting": "second compound 0.0316 µM, first compound 0.1 µM", "value": 70, "unit": "%"}, {"measurement": "viability, T/C", "setting": "second compound 0.0316 µM, first compound 0.316 µM", "value": 33.4, "unit": "%"}, {"measurement": "viability, T/C", "setting": "second compound 0.0316 µM, first compound 1 µM", "value": 22.8, "unit": "%"}, {"measurement": "viability, T/C", "setting": "second compound 0.0316 µM, first compound 3.16 µM", "value": 20.6, "unit": "%"}, {"measurement": "viability, T/C", "setting": "second compound 0.0316 µM, first compound 10 µM", "value": 13.2, "unit": "%"}, {"measurement": "viability, T/C", "setting": "second compound 0.1 µM, first compound 0.0316 µM", "value": 90.6, "unit": "%"}, {"measurement": "viability, T/C", "setting": "second compound 0.1 µM, first compound 0.1 µM", "value": 80.9, "unit": "%"}, {"measurement": "viability, T/C", "setting": "second compound 0.1 µM, first compound 0.316 µM", "value": 33.5, "unit": "%"}, {"measurement": "viability, T/C", "setting": "second compound 0.1 µM, first compound 1 µM", "value": 20.6, "unit": "%"}, {"measurement": "viability, T/C", "setting": "second compound 0.1 µM, first compound 3.16 µM", "value": 21.5, "unit": "%"}, {"measurement": "viability, T/C", "setting": "second compound 0.1 µM, first compound 10 µM", "value": 15.5, "unit": "%"}, {"measurement": "viability, T/C", "setting": "second compound 0.316 µM, first compound 0.0316 µM", "value": 93.9, "unit": "%"}, {"measurement": "viability, T/C", "setting": "second compound 0.316 µM, first compound 0.1 µM", "value": 73.1, "unit": "%"}, {"measurement": "viability, T/C", "setting": "second compound 0.316 µM, first compound 0.316 µM", "value": 34.3, "unit": "%"}, {"measurement": "viability, T/C", "setting": "second compound 0.316 µM, first compound 1 µM", "value": 21.2, "unit": "%"}, {"measurement": "viability, T/C", "setting": "second compound 0.316 µM, first compound 3.16 µM", "value": 22.8, "unit": "%"}, {"measurement": "viability, T/C", "setting": "second compound 0.316 µM, first compound 10 µM", "value": 15.8, "unit": "%"}, {"measurement": "viability, T/C", "setting": "second compound 1 µM, first compound 0.0316 µM", "value": 102, "unit": "%"}, {"measurement": "viability, T/C", "setting": "second compound 1 µM, first compound 0.1 µM", "value": 73, "unit": "%"}, {"measurement": "viability, T/C", "setting": "second compound 1 µM, first compound 0.316 µM", "value": 33, "unit": "%"}, {"measurement": "viability, T/C", "setting": "second compound 1 µM, first compound 1 µM", "value": 21.9, "unit": "%"}, {"measurement": "viability, T/C", "setting": "second compound 1 µM, first compound 3.16 µM", "value": 20.1, "unit": "%"}, {"measurement": "viability, T/C", "setting": "second compound 1 µM, first compound 10 µM", "value": 14.5, "unit": "%"}, {"measurement": "viability, T/C", "setting": "second compound 3.16 µM, first compound 0.0316 µM", "value": 98.5, "unit": "%"}, {"measurement": "viability, T/C", "setting": "second compound 3.16 µM, first compound 0.1 µM", "value": 67.6, "unit": "%"}, {"measurement": "viability, T/C", "setting": "second compound 3.16 µM, first compound 0.316 µM", "value": 34.7, "unit": "%"}, {"measurement": "viability, T/C", "setting": "second compound 3.16 µM, first compound 1 µM", "value": 16.8, "unit": "%"}, {"measurement": "viability, T/C", "setting": "second compound 3.16 µM, first compound 3.16 µM", "value": 26, "unit": "%"}, {"measurement": "viability, T/C", "setting": "second compound 3.16 µM, first compound 10 µM", "value": 16.2, "unit": "%"}, {"measurement": "viability, T/C", "setting": "second compound 10 µM, first compound 0.0316 µM", "value": 105, "unit": "%"}, {"measurement": "viability, T/C", "setting": "second compound 10 µM, first compound 0.1 µM", "value": 60.5, "unit": "%"}, {"measurement": "viability, T/C", "setting": "second compound 10 µM, first compound 0.316 µM", "value": 36.7, "unit": "%"}, {"measurement": "viability, T/C", "setting": "second compound 10 µM, first compound 1 µM", "value": 21.4, "unit": "%"}, {"measurement": "viability, T/C", "setting": "second compound 10 µM, first compound 3.16 µM", "value": 28.3, "unit": "%"}, {"measurement": "viability, T/C", "setting": "second compound 10 µM, first compound 10 µM", "value": 17.2, "unit": "%"}]}]}
